Measured values published in patent US10765114B2, “4-amino-6-(pyridyl and 2-substitutedphenyl)-picolinates and 6-amino-2-(pyridyl and 2-substitutedphenyl)-pyrimidine-4-carboxylates and their use as herbicides” (Dow AgroSciences LLC, priority 2013, dated 2020).

Legend:
Experiment in all cases: Post-Emergent Test III (Wheat and Barley)
[1] = tested on: KCHSC (kochia); format: in vivo, Kochia scoparia
Summary of the method: (§1)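 Test compounds, formulated in acetone/DMSO with aqueous crop oil concentrate and surfactant, were applied over the canopy at 187 L/ha at several serially halved rates. Subirrigated plants were scored for percent injury at 21 days, with GR10–GR90 derived by probit analysis.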

[2] = tested on: SASKR (Russian thistle); format: in vivo, Salsola tragus; conditions: for Visual Growth Reduction (%) 21 Days After Application, SASKR: SASKR Russian thistle (Salsola iberica), post-emergent
Experimental: (§2) Seeds of the desired test plant species were planted in Sun Gro MetroMix® 306 planting mixture, which typically has a pH of 6.0 to 6.8 and an organic matter content of about 30 percent, in plastic pots with a surface area of 103.2 square centimeters (cm^2). When required to ensure good germination and healthy plants, a fungicide treatment and/or other chemical or physical treatment was applied. The plants were grown for 7-36 days in a greenhouse with an approximate 14 h photoperiod which was maintained at about 18° C. during the day and 17° C. during the night. Nutrients and water were added on a regular basis and supplemental lighting was provided with overhead metal halide 1000-Watt lamps as necessary. The plants were employed for testing when they reached the second or third true leaf stage.
(§3) A weighed amount, determined by the highest rate to be tested, of each test compound was placed in a 25 mL glass vial and was dissolved in 4 mL of a 97:3 v/v mixture of acetone and DMSO to obtain concentrated stock solutions. […] The concentrated stock solutions obtained were diluted with 20 mL of an aqueous mixture containing acetone, water, isopropyl alcohol, DMSO, Agri-Dex crop oil concentrate, and X-77 surfactant in a 48:39:10:1.5:1.5:0.02 v/v ratio to obtain spray solutions containing the highest application rates. Additional application rates were obtained by serial dilution of 12 mL of the high rate solution into a solution containing 2 mL of 97:3 v/v mixture of acetone and DMSO and 10 mL of an aqueous mixture containing acetone, water, isopropyl alcohol, DMSO, Agri-Dex crop oil concentrate, and X-77 surfactant in a 48:39:10:1.5:1.5:0.02 v/v ratio to obtain ½×, ¼×, ⅛× and 1/16× rates of the high rate. Compound requirements are based upon a 12 mL application volume at a rate of 187 liters per hectare (L/ha). Formulated compounds were applied to the plant material with an overhead Mandel track sprayer equipped with 8002E nozzles calibrated to deliver 187 L/ha over an application area of 0.503 square meters at a spray height of 18 inches (43 cm) above the average plant canopy height. Control plants were sprayed in the same manner with the solvent blank.
(§4) The treated plants and control plants were placed in a greenhouse as described above and watered by subirrigation to prevent wash-off of the test compounds. After 21 dAYS, the condition of the test plants as compared with that of the untreated plants was determined visually and scored on a scale of 0 to 100 percent where 0 corresponds to no injury and 100 corresponds to complete kill and presented as indicated in Table A.
(§5) By applying the well-accepted probit analysis as described by J. Berkson in Journal of the American Statistical Society, 48, 565 (1953) and by D. Finney in “Probit Analysis” Cambridge University Press (1952), herbicidal injury of a specific compound at various rates can be used to calculate GR10, GR20, GR50, GR80 and GR90 values, which are defined as growth reduction factors that correspond to the effective dose of herbicide required to provide plant growth reduction (GR) of 10 percent, 20 percent, 50 percent, 80 percent and 90 percent, respectively. Probit analysis was applied to data collected from multiple dose rates of individual compounds utilizing the procedures explained in the following examples. The analysis of those dose rates is captured in the following tables.

[3] = tested on: POLCO (wild buckwheat); format: in vivo, Polygonum convolvulus; conditions: for Visual Growth Reduction (%) 21 Days After Application, POLCO: POLCO wild buckwheat (Polygonum convolvulus), post-emergent
Experimental: as §2, §3, §4, §5

[4] = tested on: PAPRH (common poppy); format: in vivo, Papaver rhoeas; conditions: for Visual Growth Reduction (%) 21 Days After Application, PAPRH: PAPRH common poppy (Papaver rhoeas), post-emergent
Experimental: as §2, §3, §4, §5

[5] = tested on: LAMPU (purple deadnettle); format: in vivo, Lamium purpureum; conditions: for Visual Growth Reduction (%) 21 Days After Application, LAMPU: LAMPU purple deadnettle (Lamium purpureum), post-emergent
Experimental: as §2, §3, §4, §5

[6] = tested on: TRZSS; format: in vivo; conditions: crop; for Visual Growth Reduction (%) 21 Days After Application, TRZSS: TRZSS wheat (Triticum aestivum), post-emergent
Summary of the method: as §1

[7] = tested on: HORSS; format: in vivo; conditions: crop; for Visual Growth Reduction (%) 21 Days After Application, HORSS: HORSS barley (Hordeum vulgare), post-emergent
Summary of the method: as §1

[8] = tested on: VERPE (Persian speedwell); format: in vivo, Veronica persica; conditions: for Visual Growth Reduction (%) 21 Days After Application, VERPE: VERPE bird's-eye speedwell (Veronica persica), post-emergent
Experimental: as §2, §3, §4, §5

`COC(=O)c1nc(-c2ccc(Br)nc2)c(F)c(N)c1Cl` [Compound 22, methyl 4-amino-6′-bromo-5-chloro-3-fluoro-[2,3′-bipyridine]-6-carboxylate] gave a pest or weed control at 17.5 g/ha ([1]; Bassia scoparia, post-emergence, 504 h, KCHSC kochia (Kochia scoparia), 17.5 g ai/ha, post-emergent, read-out: Visual Growth Reduction (%) 21 Days After Application, KCHSC) of 95 to 100%, a pest or weed control at 35 g/ha ([1]; Bassia scoparia, post-emergence, 504 h, KCHSC kochia (Kochia scoparia), 35 g ai/ha, post-emergent, read-out: Visual Growth Reduction (%) 21 Days After Application, KCHSC) of 95 to 100% and a pest or weed control at 70 g/ha ([1]; Bassia scoparia, post-emergence, 504 h, KCHSC kochia (Kochia scoparia), 70 g ai/ha, post-emergent, read-out: Visual Growth Reduction (%) 21 Days After Application, KCHSC) of 95 to 100%. For the same molecule, the “GR50, KCHSC” value ([1]; KCHSC, growth reduction of 50%, probit analysis, 21 days) was 3 g ai/ha, the “GR80, KCHSC” value ([1]; KCHSC, growth reduction of 80%, probit analysis, 21 days) was 8 g ai/ha and the “GR90, KCHSC” value ([1]; KCHSC, growth reduction of 90%, probit analysis, 21 days) was 14 g ai/ha. For the same molecule, the “Visual Growth Reduction (%) 21 Days After Application, SASKR” value ([2]; 17.5 g ai/ha) was “C (75-84)”, the “Visual Growth Reduction (%) 21 Days After Application, SASKR” value ([2]; 35 g ai/ha) was “C (75-84)” and the “Visual Growth Reduction (%) 21 Days After Application, SASKR” value ([2]; 70 g ai/ha) was “B (85-94)”. The “GR50, SASKR” value ([2]; SASKR, growth reduction of 50%, probit analysis, 21 days) was 5 g ai/ha, the “GR80, SASKR” value ([2]; SASKR, growth reduction of 80%, probit analysis, 21 days) was 36 g ai/ha and the “GR90, SASKR” value ([2]; SASKR, growth reduction of 90%, probit analysis, 21 days) was 95 g ai/ha. For the same molecule, the “Visual Growth Reduction (%) 21 Days After Application, POLCO” value ([3]; 17.5 g ai/ha) was “E (45-59)”, the “Visual Growth Reduction (%) 21 Days After Application, POLCO” value ([3]; 35 g ai/ha) was “E (45-59)” and the “Visual Growth Reduction (%) 21 Days After Application, POLCO” value ([3]; 70 g ai/ha) was “D (60-74)”. The “GR50, POLCO” value ([3]; POLCO, growth reduction of 50%, probit analysis, 21 days) was 26 g ai/ha, the “GR80, POLCO” value ([3]; POLCO, growth reduction of 80%, probit analysis, 21 days) was over 140 g ai/ha and the “GR90, POLCO” value ([3]; POLCO, growth reduction of 90%, probit analysis, 21 days) was over 140 g ai/ha. The “Visual Growth Reduction (%) 21 Days After Application, PAPRH” value ([4]; 17.5 g ai/ha) was “A (95-100)”, the “Visual Growth Reduction (%) 21 Days After Application, PAPRH” value ([4]; 35 g ai/ha) was “A (95-100)” and the “Visual Growth Reduction (%) 21 Days After Application, PAPRH” value ([4]; 70 g ai/ha) was “A (95-100)”. The “GR50, PAPRH” value ([4]; PAPRH, growth reduction of 50%, probit analysis, 21 days) was 1 g ai/ha, the “GR80, PAPRH” value ([4]; PAPRH, growth reduction of 80%, probit analysis, 21 days) was 1 g ai/ha and the “GR90, PAPRH” value ([4]; PAPRH, growth reduction of 90%, probit analysis, 21 days) was 1 g ai/ha. The “Visual Growth Reduction (%) 21 Days After Application, LAMPU” value ([5]; 17.5 g ai/ha) was “A (95-100)”, the “Visual Growth Reduction (%) 21 Days After Application, LAMPU” value ([5]; 35 g ai/ha) was “A (95-100)” and the “Visual Growth Reduction (%) 21 Days After Application, LAMPU” value ([5]; 70 g ai/ha) was “A (95-100)”. The “GR50, LAMPU” value ([5]; LAMPU, growth reduction of 50%, probit analysis, 21 days) was 1 g ai/ha, the “GR80, LAMPU” value ([5]; LAMPU, growth reduction of 80%, probit analysis, 21 days) was 6 g ai/ha and the “GR90, LAMPU” value ([5]; LAMPU, growth reduction of 90%, probit analysis, 21 days) was 11 g ai/ha. For the same molecule, the “Visual Growth Reduction (%) 21 Days After Application, TRZSS” value ([6]; 17.5 g ai/ha) was “C (75-84)”, the “Visual Growth Reduction (%) 21 Days After Application, TRZSS” value ([6]; 35 g ai/ha) was “B (85-94)” and the “Visual Growth Reduction (%) 21 Days After Application, TRZSS” value ([6]; 70 g ai/ha) was “B (85-94)”. The “GR10, TRZSS” value ([6]; TRZSS wheat, growth reduction of 10%, probit analysis, 21 days) was 1 g ai/ha, the “GR20, TRZSS” value ([6]; TRZSS wheat, growth reduction of 20%, probit analysis, 21 days) was 1 g ai/ha and the “Visual Growth Reduction (%) 21 Days After Application, HORSS” value ([7]; 17.5 g ai/ha) was “B (85-94)”. The “Visual Growth Reduction (%) 21 Days After Application, HORSS” value ([7]; 35 g ai/ha) was “B (85-94)”, the “Visual Growth Reduction (%) 21 Days After Application, HORSS” value ([7]; 70 g ai/ha) was “A (95-100)” and the “GR10, HORSS” value ([7]; HORSS barley, growth reduction of 10%, probit analysis, 21 days) was 1 g ai/ha. The “GR20, HORSS” value ([7]; HORSS barley, growth reduction of 20%, probit analysis, 21 days) was 1 g ai/ha, the “Visual Growth Reduction (%) 21 Days After Application, VERPE” value ([8]; 17.5 g ai/ha) was “D (60-74)” and the “Visual Growth Reduction (%) 21 Days After Application, VERPE” value ([8]; 35 g ai/ha) was “C (75-84)”. For the same molecule, the “Visual Growth Reduction (%) 21 Days After Application, VERPE” value ([8]; 70 g ai/ha) was “A (95-100)”, the “GR50, VERPE” value ([8]; VERPE, growth reduction of 50%, probit analysis, 21 days) was 9 g ai/ha and the “GR80, VERPE” value ([8]; VERPE, growth reduction of 80%, probit analysis, 21 days) was 28 g ai/ha. The “GR90, VERPE” value ([8]; VERPE, growth reduction of 90%, probit analysis, 21 days) was 50 g ai/ha.
